The record followed here is ChEMBL document CHEMBL6153110, “Peptide Double-Stapling and Arginine N-Glycosylation Triggered the Development of Therapeutic Antimicrobial Peptides Capable of Killing Drug-Resistant Bacteria in Mice” (J Med Chem, 2025).

Structures are written as SMILES. Values after ≈ are worked out from the molar mass of the structure shown. Positions of bridges follow the written chain, without caps; N, C: chain ends. Non-standard residues stand in square brackets, D forms with d. Residues, ends and D or L forms follow the SMILES beside them. R8 = C=CCCCCCC[C@@](C)(N)C(=O)O; S5 = C=CCCC[C@](C)(N)C(=O)O; Abu = CC[C@H](N)C(=O)O

Assay type in all cases: functional
The test system of one experiment is Pseudomonas aeruginosa. Kind of experiment: Antimicrobial activity against Pseudomonas aeruginosa ATCC 27853 assessed as growth inhibition measured after 8 hrs incubation by standard broth dilution assay.
A further experiment relates to Streptococcus pneumoniae. Kind of experiment: Antimicrobial activity against Streptococcus pneumoniae ATCC 49619 assessed as growth inhibition measured after 8 hrs incubation by standard broth dilution assay. In general terms: Dilution methods test growth across graded concentrations, often in twofold steps.
A further experiment relates to Klebsiella pneumoniae. Kind of experiment: Antimicrobial activity against Klebsiella pneumoniae ATCC 13883 assessed as growth inhibition measured after 8 hrs incubation by standard broth dilution assay.
Another experiment has as its system Staphylococcus aureus. Kind of experiment: Antimicrobial activity against methicillin-resistant Staphylococcus aureus ATCC 43300 assessed as growth inhibition measured after 8 hrs incubation by standard broth dilution assay.

Take `CC(=O)N[C@@H](CC(C)C)C(=O)N[C@@H](CCCCN)C(=O)N[C@@H](CCCNC(=N)N)C(=O)N[C@H](C(=O)N[C@@H](Cc1c[nH]c2ccccc12)C(=O)N[C@@H](CCCCN)C(=O)N[C@@H](CCCNC(=N)N)C(=O)N[C@H](C(=O)N[C@@H](Cc1ccccc1)C(=O)N[C@@H](CCCCN)C(=O)N[C@@H](CC(C)C)C(=O)N[C@@]1(C)CCC/C=C\CCC[C@@](C)(C(=O)N[C@@H](CCCNC(=N)N)C(=O)N[C@@H](CCC(N)=O)C(=O)N[C@@H](CC(C)C)C(=O)N[C@@H](CCCCN)C(=O)N[C@@H](CCCCN)C(=O)N2CCC[C@H]2C(=O)N[C@H](C(=O)N[C@@H](CCCNC(=N)N)C(N)=O)C(C)C)NC(=O)[C@H](Cc2ccc(O)cc2)NC(=O)[C@H](CCCNC(=N)N)NC(=O)[C@H](CCCCN)NC1=O)C(C)C)C(C)C` (Ac-LKRVWKRVFKL[S5]KRY[S5]RQLKKPVR-NH2; staple (Z) 12-16): the MIC in the experiment with Pseudomonas aeruginosa came to 5 µg/mL (≈ 1.55 µM); in the experiment on Streptococcus pneumoniae, 4.7 µg/mL (≈ 1.46 µM); in the experiment on Klebsiella pneumoniae, 38 µg/mL (≈ 11.8 µM); in the experiment on Staphylococcus aureus, 9.7 µg/mL (≈ 3.01 µM).

With `CC(=O)N[C@@H](CC(C)C)C(=O)N[C@@H](CCCCN)C(=O)N[C@@H](CCCNC(=N)N)C(=O)N[C@H](C(=O)N[C@@H](Cc1c[nH]c2ccccc12)C(=O)N[C@@H](CCCCN)C(=O)N[C@@H](CCCNC(=N)N)C(=O)N[C@H](C(=O)N[C@@H](Cc1ccccc1)C(=O)N[C@@H](CCCCN)C(=O)N[C@]1(C)CCCCCC/C=C\CCC[C@@](C)(C(=O)N[C@@H](CC(C)C)C(=O)N[C@@H](CCCCN)C(=O)N[C@@H](CCCCN)C(=O)N2CCC[C@H]2C(=O)N[C@H](C(=O)N[C@@H](CCCNC(=N)N)C(N)=O)C(C)C)NC(=O)[C@H](CCCNC(=N)N)NC(=O)[C@H](Cc2c[nH]c3ccccc23)NC(=O)[C@H](Cc2ccc(O)cc2)NC(=O)[C@H](CCCNC(=N)N)NC(=O)[C@H](CCCCN)NC(=O)[C@H](CC(C)C)NC1=O)C(C)C)C(C)C` (Ac-LKRVWKRVFK[R8]LKRYWR[S5]LKKPVR-NH2; staple (Z) 11-18), the MIC was 5 µg/mL (≈ 1.51 µM) in the experiment with Pseudomonas aeruginosa, 37.7 µg/mL (≈ 11.4 µM) in the experiment with Streptococcus pneumoniae, 4.9 µg/mL (≈ 1.48 µM) in the experiment on Klebsiella pneumoniae and 9.7 µg/mL (≈ 2.92 µM) in the experiment on Staphylococcus aureus.

In the case of `CC(=O)N[C@@H](CC(C)C)C(=O)N[C@@H](CCCCN)C(=O)N[C@@H](CCCNC(=N)N)C(=O)N[C@H](C(=O)N[C@@H](Cc1c[nH]c2ccccc12)C(=O)N[C@@H](CCCCN)C(=O)N[C@@H](CCCNC(=N)N)C(=O)N[C@H](C(=O)N[C@@H](Cc1ccccc1)C(=O)N[C@@H](CCCCN)C(=O)N[C@@]1(C)CCC/C=C\CCC[C@@](C)(C(=O)N[C@@H](Cc2c[nH]c3ccccc23)C(=O)N[C@@H](CCCNC(=N)N)C(=O)N[C@@H](CCC(N)=O)C(=O)N[C@@H](CC(C)C)C(=O)N[C@@H](CCCCN)C(=O)N[C@@H](CCCCN)C(=O)N2CCC[C@H]2C(=O)N[C@H](C(=O)N[C@@H](CCCNC(=N)N)C(N)=O)C(C)C)NC(=O)[C@H](CCCNC(=N)N)NC(=O)[C@H](CCCCN)NC(=O)[C@H](CC(C)C)NC1=O)C(C)C)C(C)C` (Ac-LKRVWKRVFK[S5]LKR[S5]WRQLKKPVR-NH2; staple (Z) 11-15), the MIC is 38.1 µg/mL (≈ 11.8 µM) with Pseudomonas aeruginosa, 37.7 µg/mL (≈ 11.6 µM) with Streptococcus pneumoniae, 38 µg/mL (≈ 11.7 µM) with Klebsiella pneumoniae and 2.5 µg/mL (≈ 0.771 µM) in the experiment on Staphylococcus aureus.

Regarding `CC(=O)N[C@@H](CC(C)C)C(=O)N[C@@H](CCCCN)C(=O)N[C@@H](CCCNC(=N)N)C(=O)N[C@H](C(=O)N[C@@H](Cc1c[nH]c2ccccc12)C(=O)N[C@@H](CCCCN)C(=O)N[C@@H](CCCNC(=N)N)C(=O)N[C@H](C(=O)N[C@]1(C)CCCCCC/C=C\CCC[C@@](C)(C(=O)N[C@@H](CCCNC(=N)N)C(=O)N[C@@H](CCC(N)=O)C(=O)N[C@@H](CC(C)C)C(=O)N[C@@H](CCCCN)C(=O)N[C@@H](CCCCN)C(=O)N2CCC[C@H]2C(=O)N[C@H](C(=O)N[C@@H](CCCNC(=N)N)C(N)=O)C(C)C)NC(=O)[C@H](Cc2ccc(O)cc2)NC(=O)[C@H](CCCNC(=N)N)NC(=O)[C@H](CCCCN)NC(=O)[C@H](CC(C)C)NC(=O)[C@H](CC(C)C)NC(=O)[C@H](CCCCN)NC1=O)C(C)C)C(C)C` (Ac-LKRVWKRV[R8]KLLKRY[S5]RQLKKPVR-NH2; staple (Z) 9-16), the MIC in the experiment with Pseudomonas aeruginosa was found to be 38 µg/mL (≈ 11.8 µM); with Streptococcus pneumoniae it was 9.6 µg/mL (≈ 2.98 µM); in the experiment with Klebsiella pneumoniae, 38 µg/mL (≈ 11.8 µM); in the experiment on Staphylococcus aureus, 9.7 µg/mL (≈ 3.01 µM).

For `CC(=O)N[C@@H](CC(C)C)C(=O)N[C@@H](CCCCN)C(=O)N[C@@H](CCCNC(=N)N)C(=O)N[C@H](C(=O)N[C@@H](Cc1c[nH]c2ccccc12)C(=O)N[C@@H](CCCCN)C(=O)N[C@@H](CCCNC(=N)N)C(=O)N[C@H](C(=O)N[C@@]1(C)CCC/C=C\CCC[C@@](C)(C(=O)N[C@@H](CCCNC(=N)N)C(=O)N[C@@H](Cc2ccc(O)cc2)C(=O)N[C@@H](Cc2c[nH]c3ccccc23)C(=O)N[C@@H](CCCNC(=N)N)C(=O)N[C@@H](CCC(N)=O)C(=O)N[C@@H](CC(C)C)C(=O)N[C@@H](CCCCN)C(=O)N[C@@H](CCCCN)C(=O)N2CCC[C@H]2C(=O)N[C@H](C(=O)N[C@@H](CCCNC(=N)N)C(N)=O)C(C)C)NC(=O)[C@H](CC(C)C)NC(=O)[C@H](CC(C)C)NC(=O)[C@H](CCCCN)NC1=O)C(C)C)C(C)C` (Ac-LKRVWKRV[S5]KLL[S5]RYWRQLKKPVR-NH2; staple (Z) 9-13), the MIC in the experiment on Pseudomonas aeruginosa was 5 µg/mL (≈ 1.54 µM); in the experiment with Streptococcus pneumoniae, 9.6 µg/mL (≈ 2.96 µM); in the experiment with Klebsiella pneumoniae it was 38 µg/mL (≈ 11.7 µM); with Staphylococcus aureus it was 2.5 µg/mL (≈ 0.771 µM).

`CC(=O)N[C@@H](CC(C)C)C(=O)N[C@@H](CCCCN)C(=O)N[C@@H](CCCNC(=N)N)C(=O)N[C@H](C(=O)N[C@@H](Cc1c[nH]c2ccccc12)C(=O)N[C@@H](CCCCN)C(=O)N[C@@H](CCCNC(=N)N)C(=O)N[C@]1(C)CCCCCC/C=C\CCC[C@@](C)(C(=O)N[C@@H](Cc2c[nH]c3ccccc23)C(=O)N[C@@H](CCCNC(=N)N)C(=O)N[C@@H](CCC(N)=O)C(=O)N[C@@H](CC(C)C)C(=O)N[C@@H](CCCCN)C(=O)N[C@@H](CCCCN)C(=O)N2CCC[C@H]2C(=O)N[C@H](C(=O)N[C@@H](CCCNC(=N)N)C(N)=O)C(C)C)NC(=O)[C@H](CCCNC(=N)N)NC(=O)[C@H](CCCCN)NC(=O)[C@H](CC(C)C)NC(=O)[C@H](CC(C)C)NC(=O)[C@H](CCCCN)NC(=O)[C@H](Cc2ccccc2)NC1=O)C(C)C` (Ac-LKRVWKR[R8]FKLLKR[S5]WRQLKKPVR-NH2; staple (Z) 8-15): the MIC came out at 5 µg/mL (≈ 1.52 µM) with Pseudomonas aeruginosa, 19 µg/mL (≈ 5.76 µM) in the experiment with Streptococcus pneumoniae, 38 µg/mL (≈ 11.5 µM) in the experiment with Klebsiella pneumoniae and 9.7 µg/mL (≈ 2.94 µM) in the experiment with Staphylococcus aureus.

`CC(=O)N[C@@H](CC(C)C)C(=O)N[C@@H](CCCCN)C(=O)N[C@@H](CCCNC(=N)N)C(=O)N[C@H](C(=O)N[C@@H](Cc1c[nH]c2ccccc12)C(=O)N[C@@H](CCCCN)C(=O)N[C@@H](CCCNC(=N)N)C(=O)N[C@@]1(C)CCC/C=C\CCC[C@@](C)(C(=O)N[C@@H](CCCCN)C(=O)N[C@@H](CCCNC(=N)N)C(=O)N[C@@H](Cc2ccc(O)cc2)C(=O)N[C@@H](Cc2c[nH]c3ccccc23)C(=O)N[C@@H](CCCNC(=N)N)C(=O)N[C@@H](CCC(N)=O)C(=O)N[C@@H](CC(C)C)C(=O)N[C@@H](CCCCN)C(=O)N[C@@H](CCCCN)C(=O)N2CCC[C@H]2C(=O)N[C@H](C(=O)N[C@@H](CCCNC(=N)N)C(N)=O)C(C)C)NC(=O)[C@H](CC(C)C)NC(=O)[C@H](CCCCN)NC(=O)[C@H](Cc2ccccc2)NC1=O)C(C)C` (Ac-LKRVWKR[S5]FKL[S5]KRYWRQLKKPVR-NH2; staple (Z) 8-12): the MIC came to 5 µg/mL (≈ 1.51 µM) in the experiment with Pseudomonas aeruginosa, 37.7 µg/mL (≈ 11.4 µM) with Streptococcus pneumoniae, 38 µg/mL (≈ 11.5 µM) in the experiment on Klebsiella pneumoniae and 2.5 µg/mL (≈ 0.756 µM) in the experiment on Staphylococcus aureus.

As for `CC[C@@H]1NC(=O)[C@H](Cc2ccccc2)NC(=O)[C@H](C(C)C)NC(=O)[C@@](C)(NC(=O)[C@H](CCCCN)NC(=O)[C@H](Cc2c[nH]c3ccccc23)NC(=O)[C@@H](NC(=O)[C@H](CCCNC(=N)N)NC(=O)[C@H](CCCCN)NC(=O)[C@H](CC(C)C)NC(C)=O)C(C)C)CCC/C=C\CCC[C@@](C)(C(=O)N[C@@H](CC(C)C)C(=O)N[C@@H](CCCCN)C(=O)N[C@@H](CCCNC(=N)N)C(=O)N[C@@H](Cc2ccc(O)cc2)C(=O)N[C@@H](Cc2c[nH]c3ccccc23)C(=O)N[C@@H](CCCNC(=N)N)C(=O)N[C@@H](CCC(N)=O)C(=O)N[C@@H](CC(C)C)C(=O)N[C@@H](CCCCN)C(=O)N[C@@H](CCCCN)C(=O)N2CCC[C@H]2C(=O)N[C@H](C(=O)N[C@@H](CCCNC(=N)N)C(N)=O)C(C)C)NC1=O` (Ac-LKRVWK[S5]VF[Abu][S5]LKRYWRQLKKPVR-NH2; staple (Z) 7-11), the minimal inhibitory concentration (MIC) with Pseudomonas aeruginosa worked out at 5 µg/mL (≈ 1.56 µM); with Streptococcus pneumoniae, 19 µg/mL (≈ 5.93 µM); in the experiment with Klebsiella pneumoniae, 4.9 µg/mL (≈ 1.53 µM); in the experiment with Staphylococcus aureus, 2.5 µg/mL (≈ 0.78 µM).

As to `CC(=O)N[C@@H](CC(C)C)C(=O)N[C@@H](CCCCN)C(=O)N[C@@H](CCCNC(=N)N)C(=O)N[C@H](C(=O)N[C@]1(C)CCCCCC/C=C\CCC[C@@](C)(C(=O)N[C@@H](CCCCN)C(=O)N[C@@H](CCCNC(=N)N)C(=O)N[C@@H](Cc2ccc(O)cc2)C(=O)N[C@@H](Cc2c[nH]c3ccccc23)C(=O)N[C@@H](CCCNC(=N)N)C(=O)N[C@@H](CCC(N)=O)C(=O)N[C@@H](CC(C)C)C(=O)N[C@@H](CCCCN)C(=O)N[C@@H](CCCCN)C(=O)N2CCC[C@H]2C(=O)N[C@H](C(=O)N[C@@H](CCCNC(=N)N)C(N)=O)C(C)C)NC(=O)[C@H](CC(C)C)NC(=O)[C@H](CCCCN)NC(=O)[C@H](Cc2ccccc2)NC(=O)[C@H](C(C)C)NC(=O)[C@H](CCCNC(=N)N)NC(=O)[C@H](CCCCN)NC1=O)C(C)C` (Ac-LKRV[R8]KRVFKL[S5]KRYWRQLKKPVR-NH2; staple (Z) 5-12), the MIC with Pseudomonas aeruginosa is 19.3 µg/mL (≈ 5.92 µM); with Streptococcus pneumoniae it was 9.6 µg/mL (≈ 2.94 µM); with Klebsiella pneumoniae, 38 µg/mL (≈ 11.7 µM); with Staphylococcus aureus, 9.7 µg/mL (≈ 2.98 µM).

By MIC is commonly meant the least concentration at which growth counts as inhibited.
